Tests used:
Type in all cases: in vivo, mouse
MLL-AF9 induced AML = test: MLL-AF9 BMT assay, leukemic burden (spleen weight, WBC); settings: FoxO1/3/4 floxed
Protocol: MLL-AF9-positive FoxO1/3/4^floxed murine bone marrow (BM) cell recovered from a leukemic primary recipient mousecarrying the Mx1-Cre transgene (Mx1-Cre+) or not (Mx1-Cre−) were transplanted into sub-lethally irradiated secondary recipient mice. Fourteen days following transplant 50% of both Mx1-Cre+ and Mx1-Cre− mice were administered pI-pC and the remaining 50% of mice from each condition were given saline. At the first sign of leukemia all mice from each Mx1-Cre condition status were euthanized (Day 29 for Mx1-Cre−(saline and pI-pC treated) and Day 39 for Mx1-Cre+ (saline & pI-pC-treated)).
After transduction, infected cells were transplanted into lethally irradiated (2 doses of 450rad gIR separated by 12 hours) F1 FVB/C57/Bl6 mice. Recipient mice developed leukemia within 70-80 days with a median survival of 77 days. Mononuclear BM cells recovered from leukemic mice were then transplanted into secondary sub-lethally irradiated recipients. Fourteen days following transplant, secondary recipients were administered intra-peritoneally three doses of saline or 12.5 mg/kg pI-pC (GE Healthcare Life Sciences) every 2 days. Mice were then monitored for external (i.e. moribund) and internal (white blood cell counts) signs of leukemia.
To address whether FoxO1/3/4 are essential to maintain MLL-AF9 induced AML in vivo, a MLL-AF9 bone marrow transplant (BMT) assay was used in a mouse bearing homozygous Lox-P flanked (floxed) alleles of FoxO1/3/4 and the interferon-inducible Mx1-Cre transgene (FoxO1/3/4^floxed; Mx1-Cre+; MLL-AF9). MLL-AF9 transformed FoxO1/3/4^floxed BM cells without the Mx1-Cre transgene (FoxO1/3/4^floxed; Mx1-Cre−; MLL-AF9) were used as controls. Leukemia cells from each context (recovered from primary recipients displaying frank leukemia) were harvested and transplanted into sub-lethally irradiated recipients. Fourteen days post-transplant, secondary recipients receiving FoxO1/3/4^floxed; Mx1-Cre+; MLL-AF9 cells or FoxO1/3/4^floxed; Mx1-Cre−; MLL-AF9 controls were either administered polyinosine-polycytidyline (pI-pC) to induce excision of FoxO1/3/4 floxed alleles or saline control (FIG. 9A). At the first presentation of AML, all mice from each group (Mx1-Cre− versus Mx1-Cre+) were euthanized and assessed for leukemic burden as defined by spleen weight and peripheral white blood cell (WBC) counts. […] In contrast, pI-pC-treated FoxO1/3/4^floxed; Mx1-Cre+; MLL-AF9 transplant mice retained normal spleen weights and WBC counts (FIGS. 9B-D and 10A).

[1] = system: leukemia-initiating cell (LIC); test: Limited dilution assay of LIC function in tertiary recipients
From the text: Using the same experimental set-up described in panels G leukemia BM cells Saline (MLL-AF9; FoxO1/3/4^+/+, panel H) versus pI-pC (MLL-AF9; FoxO1/3/4^Δ/Δ, panel I) were by isolated by flow cytometry and subsequently transplanted into tertiary recipients at various cell numbers: 300 (n=6), 3,000 (n=6), 30,000 (n=4) and 300,000 (n=4). Animals were then monitored weekly and euthanized upon presentation of external (moribund) and internal (e.g. WBC) signs of AML. The LIC frequencies of each condition are located in the bottom left corner (H. LICfreq^+/+=1:20,688 and I. LICfreq^Δ/Δ=1: 269,310).
As described in FIG. 5, MLL-AF9-induced AML was generated in a FoxO1/3/4^floxed; Mx1-Cre+ genetic background that was subsequently transplanted into secondary mice. Fourteen days post-transplant, secondary recipients were administered with saline or pI-pC and monitored for the development of AML (FIG. 5). BM cells recovered from saline (Ctrl) and pI-pC treated mice that succumbed to AML were then transplanted into tertiary recipients and evaluated for the development of AML (p=0.0061; n=8).
Log-Rank (Mantel-Cox) test was used to determine p values for all Kaplan-Meier survival curve analyses. Unpaired, two-tailed student's t tests were used for all analyses comparing two experimental groups. Poisson statistics was used to determine the leukemia-initiating cell frequency in vivo in FIGS. 9H and 9I as well as in vitro in FIGS. 4E and 4F.
To test whether loss of FoxO1/3/4 also diminished LIC function, a limited dilution assay was performed for leukemia cells immediately following FoxO1/3/4 deletion. Briefly, equal numbers of leukemic BM cells were recovered from FoxO1/3/4^floxed; Mx1-Cre+; MLL-AF9 mice seven days following pI-pC or saline treatment. Recipient mice were then injected with 300, 3,000, 30,000 or 300,000 cells of each condition. Ninety days following transplantation, 100%, 75% and 17% of mice that received 300,000, 30,000 or 3,000 cells, respectively, from saline-treated FoxO1/3/4^floxed; Mx1-Cre+; MLL-AF9 succumbed to AML corresponding to a LIC frequency of 1:20,688 (FIG. 9H). In contrast, 75% of mice transplanted with 300,000 pI-pC-treated FoxO1/3/4^floxed; Mx1-Cre+; MLL-AF9 donor cells developed AML whereas 100% of mice from each other cell dose were alive at day 90.

FoxO1, FoxO3, FoxO4 = test: Excision efficiency (Real Time PCR, western blot) in BM
From the text: RNA recovered from BM was converted to cDNA and then analyzed for FoxO1 (FIG. 10C.), FoxO3 (FIG. 10D.), FoxO4 (FIG. 10E.) and GAPDH expression by quantitative Real Time PCR. Each FoxO gene expression is normalized with GAPDH expression.
BM recovered from one saline-treated FoxO1/3/4^floxed; MLL-AF9; Mx1-Cre+ mouse (lane 1) five FoxO1/3/4^floxed; MLL-AF9; Mx1-Cre+ mice treated with pI-pC (lanes 2-6) that succumbed to AML-related death were subjected to Western blot with FoxO3 (75D8) and Tubulin antibodies.

[2] = Mx1-Cre+, MLL-AF9 mice, pI-pC induces excision of FoxO1/3/4

Q: For polyinosine-polycytidyline [pI-pC], which WBC counts (MLL-AF9 induced AML; [2]) is on record?
A: normal

Q: What about the spleen weights (MLL-AF9 induced AML; [2]) of the same substance?
A: normal

Q: And the “lymphoid-myeloid ratio in peripheral blood” value (MLL-AF9 induced AML; Mx1-Cre+, MLL-AF9 mice, data not shown)?
A: normal lymphoid-myeloid ratio

Q: And the splenomegaly and leukocytosis (MLL-AF9 induced AML; Mx1-Cre−, MLL-AF9 recipients (no excision))?
A: developed splenomegaly and leukocytosis

Q: And the “increase in median survival” value ([1]; 300,000 donor cells, pI-pC vs saline-treated)?
A: ~2 fold

Q: And the median survival ([1]; 300,000 pI-pC-treated donor cells, n=4)?
A: 82 days

Q: And the “mice that developed AML” value ([1]; 300,000 pI-pC-treated donor cells, ninety days following transplantation)?
A: 75%

Q: And the “mice alive at day 90” value ([1]; each other cell dose (300, 3,000, 30,000) of pI-pC-treated donor cells)?
A: 100%

Q: And the “LIC frequency lower than the control group” value ([1]; pI-pC vs saline)?
A: 13 fold

Q: And the “latency in recipients of donor cells from mice of FIG. 9F” value ([1]; pI-pC vs saline-treated donors (FIG. 10B))?
A: extended latency

Q: And the “FOXO1/3/4 expression (quantitative Real Time PCR, normalized with GAPDH)” value (FoxO1, FoxO3, FoxO4; BM RNA)?
A: suppression of FOXO1/3/4 expression

Q: And the “FOXO3 (Western blot)” value (FoxO1, FoxO3, FoxO4; BM of Mx1-Cre+ mice that succumbed to AML)?
A: below detection

— patent US20140206624A1, “TREATMENT OF LEUKEMIA” (THE BRIGHAM AND WOMEN'S HOSPITAL, INC., priority 2011, published 2014)
